# Measurements published in patent US6610646B2, “Enhanced duration fragrance delivery system having a non-distorted initial fragrance impression” (The Procter & Gamble Company, priority 2000, dated 2003).
# Columns and labels:
# [1] = Olfactory Intensity grading of solutions in DPG by expert panel, Initial Determination; design: species or system human
# Description: (§1) To determine the ODC and the OSC for a given fragrance raw material f, an Olfactory Intensity vs. Log Concentration curve is constructed. This process is comprised of both an initial and a final determination.
# Olfactory Intensity is graded for each solution from 0 to 100 by a panel of at least three expert graders composed of average artisans of ordinary skill in perfume formulation. The Olfactory Intensity at any concentration is taken to be the mean of the individual grades at that concentration. Table I below gives Olfactory Intensity grades determined in this manner for two common fragrance raw materials at three different weight percent concentration in DPG.
# The Initial Determination gives the general shape of the curve and is used to establish which of the nine concentrations (Entries 1-9 in Table II) will be used for the starting fragrance raw material concentration, [f]start, and which will be used for the upper concentration limit, [f]limit, in the Final Determination. The highest concentration of fragrance raw material that gives an Olfactory Intensity below 5 is chosen as the starting concentration for the Final Determination. In the example given, [f]start is 0.00001 wt. % of 2,6-dimethyl-5-heptenal in DPG (Table II, Entry 3). The lowest concentration of fragrance raw material above [f]start for which the Olfactory Intensity of the two immediately adjacent concentrations are separated by less than 5 is chosen as the upper concentration limit for the Final Determination. In the example given, [f]limit is 0.10 wt. % of 2,6-dimethyl-5-heptenal in DPG (Table II, Entry 7).
# [2] = Olfactory Intensity grading of solutions in DPG by expert panel, Final Determination (ODC and OSC); design: species or system human; conditions: for Olfactory Intensity: Final Determination, scale 0 to 100
# Description: Odor Detection Concentration, vD: The odor detection concentration (ODC) is defined herein as the lowest weight percent concentration of a fragrance raw material dissolved in dipropylene glycol (DPG) at which the average artisan of ordinary skill in perfume formulation can detect a fragrance raw material olfactory intensity of 10 on a scale of intensity ranging from 0 to 100.
# Odor Saturation Concentration, vS: The odor saturation concentration (OSC) is defined herein as the amount of fragrance raw material, expressed as weight percent dissolved in DPG, beyond which no further odor impression is provided as measured by the average artisan of ordinary skill in perfume formulation.
# as §1
# Final Determination: In constructing the final curve, multiples of said starting concentration are used. The concentrations used are the starting concentration, [f]start=1c, and the multiples 5c, 10c, 20c, 40c, 80c, 160c, 320c, 640c, 1280c, 2560c, 5120c, 1024c, 2048c, 4096c, etc., up to and including the point where the multiple first surpasses [f]limit. Olfactory Intensity is graded for each solution from 0 to 100 by a panel of at least three expert graders composed of average artisans of ordinary skill in perfume formulation. The Olfactory Intensity at any concentration is taken to be the mean of the individual grades at that concentration.
# The Final Determination yields values for the ODC and the OSC. The odor detection concentration (ODC) is defined herein as the lowest weight percent concentration, above [f]start, of a fragrance raw material dissolved in dipropylene glycol (DPG) at which the fragrance raw material olfactory intensity is 10 on a scale of intensity ranging from 0 to 100. The determination may require linear interpolation between two consecutive concentrations where one has an olfactory intensity below 10 and the other above 10. For 2,6-dimethyl-5-heptenal, the ODC as determined above is 0.0001 wt. % (Table III, Entry 3). The odor saturation concentration (OSC) is defined as the lowest concentration of a fragrance raw material above the ODC for which the Olfactory Intensity of the two immediately adjacent concentrations are separated by less than 5. For 2,6-dimethyl-5-heptenal, the OSC as determined above is 0.0256 wt. % (Table III, Entry 11).
# [3] = 0.0005 wt. % in DPG, scale 0 to 100, mean of panel grades
smiles,measurement,setting,value
"CC=CC(=O)C1C(C)C=CCC1(C)C (stereo not drawn) [1-(2,6,6-trimethyl-3-cyclohexen-1-yl)-2-buten-1-one]",Olfactory Intensity,"[1]; 0.00004 wt. % in DPG, scale 0 to 100, mean of panel grades",30
same,Olfactory Intensity,"[1]; 0.00009 wt. % in DPG, scale 0 to 100, mean of panel grades",50
same,Olfactory Intensity,[1]; [3],70
"CC1=CC(C)C(C=O)CC1 (stereo not drawn) [2,4-dimethyl-3-cyclohexene-1-carboxaldehyde]",Olfactory Intensity,[1]; [3],30
same,Olfactory Intensity,"[1]; 0.001 wt. % in DPG, scale 0 to 100, mean of panel grades",50
same,Olfactory Intensity,"[1]; 0.003 wt. % in DPG, scale 0 to 100, mean of panel grades",70
"CC(C)=CCCC(C)C=O (stereo not drawn) [2,6-dimethyl-5-heptenal]",Olfactory Intensity,"[1]; Initial Determination, 0.0000001 wt. % in DPG, scale 0 to 100",0
same,Olfactory Intensity,"[1]; Initial Determination, 0.000001 wt. % in DPG, scale 0 to 100",0
same,Olfactory Intensity,"[1]; Initial Determination, 0.00001 wt. % in DPG, scale 0 to 100",0
same,Olfactory Intensity,"[1]; Initial Determination, 0.0001 wt. % in DPG, scale 0 to 100",10
same,Olfactory Intensity,"[1]; Initial Determination, 0.001 wt. % in DPG, scale 0 to 100",55
same,Olfactory Intensity,"[1]; Initial Determination, 0.01 wt. % in DPG, scale 0 to 100",81
same,Olfactory Intensity,"[1]; Initial Determination, 0.1 wt. % in DPG, scale 0 to 100",83
same,Olfactory Intensity,"[1]; Initial Determination, 1.0 wt. % in DPG, scale 0 to 100",84
same,Olfactory Intensity,"[1]; Initial Determination, 10.0 wt. % in DPG, scale 0 to 100",84
same,Olfactory Intensity,[2]; 0.00001 wt. % in DPG,0
same,Olfactory Intensity,[2]; 0.00005 wt. % in DPG,6
same,Olfactory Intensity,[2]; 0.0001 wt. % in DPG,10
same,Olfactory Intensity,[2]; 0.0002 wt. % in DPG,19
same,Olfactory Intensity,[2]; 0.0004 wt. % in DPG,33
same,Olfactory Intensity,[2]; 0.0008 wt. % in DPG,50
same,Olfactory Intensity,[2]; 0.0016 wt. % in DPG,64
same,Olfactory Intensity,[2]; 0.0032 wt. % in DPG,74
same,Olfactory Intensity,[2]; 0.0064 wt. % in DPG,78
same,Olfactory Intensity,[2]; 0.0128 wt. % in DPG,81
same,Olfactory Intensity,[2]; 0.0256 wt. % in DPG,83
same,Olfactory Intensity,[2]; 0.0512 wt. % in DPG,83
same,Olfactory Intensity,[2]; 0.1024 wt. % in DPG,84
same,odor saturation concentration (OSC),[2]; lowest concentration in DPG above the ODC where intensities of the two adjacent concentrations differ by less than 5,0.0256 wt. %
same,odor detection concentration (ODC),[2]; lowest concentration in DPG with olfactory intensity 10 on a scale 0 to 100,0.0001 wt. %
